The values that follow come from ChEMBL document CHEMBL5512696, “Discovery of a Novel ASM Direct Inhibitor with a 1,5-Diphenyl-pyrazole Scaffold and Its Antidepressant Mechanism of Action” (J Med Chem, 2024).

The structures appear in SMILES notation. Active and inactive are the calls of the source. The calls are words filed in the database; no cut-off is given here.

The test system of data set [1] is SH-SY5Y. Description: Neuroprotective activity against corticosterone induced human SH-SY5Y cells assessed as protection against corticosterone induced cell damage measured after 24 hrs by CCK-8 assay. In kind it is functional, cell-based. The note with it: dose 5-20 µM. (Tetrazolium assays rely on reduction of a dye to a coloured formazan, in cell work by metabolically active cells.)

The nature of data set [2]: Tmax in male ICR mouse at 1 mg/kg, iv measured upto 480 mins by LC-MS/MS analysis. The class given is ADME, organism-based. The note with it: in vivo.
Data set [3] can be described thus: AUC (0 to t) in male ICR mouse at 1 mg/kg, iv measured upto 480 mins by LC-MS/MS analysis. In kind it is ADME, organism-based. The note with it: in vivo.
A short description of data set [4]: Observed apparent volume of distribution in male ICR mouse at 1 mg/kg, iv measured upto 480 mins by LC-MS/MS analysis. The class given is ADME, organism-based. The note with it: in vivo, 8 h.
Data set [5] is described as follows: Drug concentration in male ICR mouse plasma at 1 mg/kg, iv measured after 60 mins by LC-MS/MS analysis. The class given is ADME, organism-based.
A short description of data set [6]: Drug concentration in male ICR mouse brain at 1 mg/kg, iv measured after 30 mins by LC-MS/MS analysis. The note with it: read-out: Ct. In kind it is ADME, organism-based.
Data set [7] concerns Mus musculus. Description: Improvement in depression-like behavior in ICR mouse model of chronic unpredictable mild stress assessed as reduction in immobility time at 6 to 24 mg/kg, ip administered once a day for 10 days post 8 week of chronic unpredictable mild stress by tail suspension test. The note with it: dose 6-24 mg/kg, time 10.0 day. In kind it is functional, organism-based.

Data set [8] concerns Mus musculus. Description: Improvement in depression-like behavior in ICR mouse model of chronic unpredictable mild stress assessed as reduction in immobility time at 6 to 24 mg/kg, ip administered once a day for 10 days post 8 week of chronic unpredictable mild stress by forced swim test. In kind it is functional, organism-based. Conditions: dose 6-24 mg/kg, time 10.0 day.

Data set [9] has as its system Mus musculus. The data set is described as follows: Improvement in depression-like behavior in ip dosed ICR mouse model of chronic unpredictable mild stress assessed as improvement in sugar consumption administered once a day for 10 days post 8 week of chronic unpredictable mild stress by sugar preference test. In kind it is functional, organism-based. Conditions: dose 6-24 mg/kg, time 10.0 day.

Data set [10] relates to Mus musculus. The data set is described as follows: Antidepressant activity in ICR mouse model of chronic unpredictable mild stress assessed as downregulation of neuronal apoptosis by measuring improvement in Bcl-2/Bax ratio in hippocampus at 6 to 24 mg/kg, ip administered once a day for 1 week post 8 week of chronic unpredictable mild stress and measured after 1 week by Western blot analysis. In kind it is functional, organism-based. The note with it: dose 6-24 mg/kg, time 2.0 weeks.

Data set [11] has as its system Mus musculus. The data set is described as follows: Antidepressant activity in ip dosed ICR mouse model of chronic unpredictable mild stress assessed as downregulation of neuronal apoptosis by measuring reduction in caspase-3 protein level in hippocampus administered once a day for 1 week post 8 week of chronic unpredictable mild stress and measured after 1 week by Western blot analysis. In kind it is functional, organism-based. The note with it: dose 6-24 mg/kg, time 2.0 weeks.

The test system of data set [12] is Mus musculus. Description: Antidepressant activity in ICR mouse model of chronic unpredictable mild stress assessed as reduction in sphingomyelin level in hippocampus at 6 to 12 mg/kg, ip administered once a day for 1 week post 8 week of chronic unpredictable mild stress and measured after 1 week by ELISA. The class given is functional, organism-based. The note with it: dose 6-12 mg/kg, time 2.0 weeks.

Data set [13] deals with Mus musculus. The data set is described as follows: Antidepressant activity in ICR mouse model of chronic unpredictable mild stress assessed as reduction in sphingomyelin level in hippocampus at 12 mg/kg, ip administered once a day for 1 week post 8 week of chronic unpredictable mild stress and measured after 1 week by ELISA. The class given is functional, organism-based. Conditions: time 2.0 weeks.

Data set [14] deals with Mus musculus. The data set is described as follows: Antidepressant activity in ICR mouse model of chronic unpredictable mild stress assessed as reduction in oxidative stress by measuring reduction in MDA level in cerebral cortex at 6 to 12 mg/kg, ip administered once a day for 1 week post 8 week of chronic unpredictable mild stress and measured after 1 week by ELISA. In kind it is functional, organism-based. The note with it: dose 6-12 mg/kg, time 2.0 weeks.

Data set [15] has as its system Mus musculus. The data set is described as follows: Antineuroinflammatory activity in ip dosed ICR mouse model of chronic unpredictable mild stress assessed as reduction in TNFalpha level in serum administered once a day for 1 week post 8 week of chronic unpredictable mild stress and measured after 1 week by ELISA. In kind it is functional, organism-based. The note with it: dose 6-12 mg/kg, time 2.0 weeks.

Regarding `O=C(NO)c1cc(-c2ccc(Br)cc2)n(-c2ccc(Cl)cc2)n1`, the Activity entry in data set [1], in data set [11] and in [15] was “Dose-Dependent Effect” in each case. The Tmax in [2] amounted to 15 min. The AUC(0-t) at 8 h in [3] stood at 921 ng·h/mL. Besides, the Vz in [4] is 3.29201 L/kg. This compound also returned a concentration at 1 h in data set [5] of 55.6 ng/mL. For the same compound, in data set [6], the concentration at 0.5 h was 83.1 ng/mL. Also, the result in [7], in [8], in data set [9], in [10], in [12] and in [13] was Active. Besides, the outcome in [14] was Active.

In general, Tmax refers to the time at which the peak concentration occurs. Broadly, the AUC(0-t) is exposure summed from dosing to a finite time, without extrapolation to infinity. Read a low AUC(0-t) as low exposure.
